Five molecules from US4355179A, “Radioactive nuclide labeled propiophenone compounds” (Burroughs Wellcome Co., priority 1980, dated 1982) can be followed below.

Assay [1] has as its system antisera raised by a bupropion variant-carrier material conjugate. Nature of the assay: Competition with radiolabeled bupropion or radiolabeled competitor for binding to antisera. To be noted: against radiolabeled bupropion or radiolabeled competitor.
Assay [2] has as its system anti-compound 1 sera. Nature of the assay: RIA of bupropion using 125I-labeled competitor with anti-compound 1 sera. It is filed as binding. Conditions: compound 6 with anti-compound 1 sera, compared with the other RIA's. The procedure: Samples of six standard solutions of bupropion in blank plasma having concentrations of 0.39 to 50 ng/ml) are pipetted (0.1 ml each) in duplicate into 12×75 mm plastic tubes. Duplicate non-specific binding (no antibody) and maximum binding tubes (no unlabeled bupropion) receive 0.1 ml blank plasma. Spiked plasma controls at several concentrations of (e.g., 1.0, 10.0, and 100 ng/ml) and plasma samples for assay (diluted into the standard range with blank plasma if necessary) are assayed in duplicate. After being placed in an ice bath, all tubes receive (in order) 0.2 ml ^3 H bupropion (416 pg. containing approximately 10^4 cpm) and 0.7 ml anti-bupropion serum (raised to a ring-functionalized immunogen according to the present invention) (at pre-determined dilutions such that approximately 40% of the ^3 H bupropion added is bound), both in assay buffer (0.05 M phosphate-bufferedisotonic saline, containing 0.01 M EDTA and 0.1% gelatin, pH 7.0). […] The supernatants, containing antibody-bound ^3 H bupropion are carefully decanted into liquid scintillation cocktail for quantitation of ^3 H. After counts (minus average non-specific binding cpm) are expressed as percentages of average maximum binding cpm, bupropion concentrations in plasma samples and spiked controls are read from a standard curve (log concentration vs percent average maximum binding). […]

In assay [3] the test system is anti-compound 2 sera, anti-compound 3 sera. Nature of the assay: RIA of bupropion using 125I-labeled competitors with anti-compound 2 sera and anti-compound 3 sera. It counts as binding. To be noted: with anti-compound 2 or anti-compound 3 sera. The procedure:
Samples of six standard solutions of bupropion in blank plasma having concentrations of 0.39 to 50 ng/ml) are pipetted (0.1 ml each) in duplicate into 12×75 mm plastic tubes. Duplicate non-specific binding (no antibody) and maximum binding tubes (no unlabeled bupropion) receive 0.1 ml blank plasma. Spiked plasma controls at several concentrations of (e.g., 1.0, 10.0, and 100 ng/ml) and plasma samples for assay (diluted into the standard range with blank plasma if necessary) are assayed in duplicate. After being placed in an ice bath, all tubes receive (in order) 0.2 ml ^3 H bupropion (416 pg. containing approximately 10^4 cpm) and 0.7 ml anti-bupropion serum (raised to a ring-functionalized immunogen according to the present invention) (at pre-determined dilutions such that approximately 40% of the ^3 H bupropion added is bound), both in assay buffer (0.05 M phosphate-bufferedisotonic saline, containing 0.01 M EDTA and 0.1% gelatin, pH 7.0). Non-specific binding tubes receive 0.7 ml assay buffer.) Following incubation either at 25° C. for 2 hours or overnight at 4° C., bound and free ^3 H bupropion are separated by incubation for 10 min at 0° C. with 0.5 ml ice-cold dextran-coated charcoal solution (0.25% dextran, 5 mg/ml charcoal, in assay buffer) followed by centrifugation for 10 minutes at 4° C. […] The supernatants, containing antibody-bound ^3 H bupropion are carefully decanted into liquid scintillation cocktail for quantitation of ^3 H. After counts (minus average non-specific binding cpm) are expressed as percentages of average maximum binding cpm, bupropion concentrations in plasma samples and spiked controls are read from a standard curve (log concentration vs percent average maximum binding).
RIA's have been run according to the method of Example X utilizing ^125 I labeled bupropion competitors of the present invention in conjunction with antisera obtained following immunization with immunogens of the present invention. […] Following the ethanol precipitation of antibody-bound ^125 I-bupropion competitor at equilibrium, ^125 I in the protein pellets was quantified.

`CC(NC(C)(C)C)C(=O)c1cccc(Cl)c1` (racemic) [bupropion, (±)-2-tert-butylamino-3'-chloropropiophenone]: in assay [1], the “competition for binding to antisera” value is “successfully compete”.
On to `CC(NC(C)(C)C)C(=NOCC(=O)NCCc1ccc(O)c([125I])c1)c1cccc(Cl)c1` (stereo not drawn) [Compound 6, α-t-Butylamino-3-chloropropiophenone-carboxymethyloxime-^125 I-tyramine amide], for which the RIA sensitivity result in assay [2] is recorded as “least sensitive”.
As to `CC(NC(C)(C)C)C(=O)c1ccc(OCC(=O)NCCc2ccc(O)c([125I])c2)c(Cl)c1` (stereo not drawn) [Compound 7, α-t-Butylamino-3-chloro-4-carbomethoxypropiophenone-^125 I-tyramine amide], the “RIA sensitivity relative to the compound 10 (3H bupropion) assay system” value in assay [3] is given as “approximately equal”.
Same read-out and setting: as for `CC(NC(C)(C)C)C(=O)c1ccc(CCCOC(=O)CCC(=O)NCCc2ccc(O)c([125I])c2)c(Cl)c1` (stereo not drawn) [Compound 8, α-t-butylamino-3-chloro-4-γ-hydroxypropylpropiophenonehemisuccinate-^125 I-tyramine amide], the entry is “approximately equal”.
As to `CC(NC(C)(C)C)C(=O)c1ccc(O)c([125I])c1` (stereo not drawn) [Compound 9, ^125 I-α-t-Butylamino-3-iodo-4-hydroxypropiophenone], the “RIA sensitivity relative to the compound 10 (3H bupropion) assay system” value in assay [3] is reported as “approximately ten times more sensitive”.
